Results reported in ChEMBL document CHEMBL2424645, “Phosphorylated ganciclovir derivatives: design, synthesis and in vitro and in vivo immunomodulatory activity” (Med Chem Res, 2013).
Calls of active or inactive are those of the source. The rule behind the calls is not given here.

Experiments:
[1] = Toxicity in Wistar albino rat; format: organism-based; settings: in vivo
Rattus norvegicus [2] = test: Immunomodulatory activity in high fat diet-induced obese Wistar albino rat impaired immune model assessed as CRP level at 8 mg/kg, po after 8 weeks by ELISA relative to high fat-diet fed rat with immune dysfunction; format: functional
Rattus norvegicus [3] = test: Immunomodulatory activity in high fat diet-induced obese Wistar albino rat impaired immune model assessed as IL-1 level at 8 mg/kg, po after 8 weeks by ELISA relative to relative to high fat-diet fed rat with immune dysfunction; format: functional
Rattus norvegicus [4] = test: Immunomodulatory activity in high fat diet-induced obese Wistar albino rat impaired immune model assessed as IL-6 level at 8 mg/kg, po after 8 weeks by ELISA relative to vehicle-treated control; format: functional
Rattus norvegicus [5] = test: Immunomodulatory activity in high fat diet-induced obese Wistar albino rat impaired immune model assessed as TNF-alpha level at 8 mg/kg, po after 8 weeks by ELISA relative to vehicle-treated control; format: functional
Neutrophil [6] = test: Immunomodulatory activity in human neutrophils assessed as increase in intracellular killing activity at 1000 ug/mL after 20 mins by NBT dye reduction assay relative to control; format: functional; set-up: scale not given: the % may be the effect or the level left
Neutrophil [7] = test: Immunomodulatory activity in human neutrophils assessed as increase in intracellular killing activity at 100 ug/mL after 20 mins by NBT dye reduction assay relative to control; format: functional; set-up: scale not given: the % may be the effect or the level left
Neutrophil [8] = test: Immunomodulatory activity in human neutrophils assessed as increase in intracellular killing activity at 40 ug/mL after 20 mins by NBT dye reduction assay relative to control; format: functional; set-up: scale not given: the % may be the effect or the level left
Neutrophil [9] = test: Immunomodulatory activity in human neutrophils assessed as increase in intracellular killing activity at 10 ug/mL after 20 mins by NBT dye reduction assay relative to control; format: functional; set-up: scale not given: the % may be the effect or the level left
Neutrophil [10] = test: Immunomodulatory activity in human neutrophils assessed as increase in intracellular killing activity at 20 ug/mL after 20 mins by NBT dye reduction assay relative to control; format: functional; set-up: scale not given: the % may be the effect or the level left
Rattus norvegicus [11] = test: Immunomodulatory activity in high fat diet-induced obese Wistar albino rat impaired immune model assessed as decrease in total monocytes count at 8 mg/kg, po after 8 weeks by hematology analyser relative to control; format: functional, organism-based; set-up: dose 8 mg/kg
Rattus norvegicus [12] = test: Immunomodulatory activity in high fat diet-induced obese Wistar albino rat impaired immune model assessed as decrease in total neutrophils count at 8 mg/kg, po after 8 weeks by hematology analyser relative to control; format: functional, organism-based; set-up: dose 8 mg/kg
Rattus norvegicus [13] = test: Immunomodulatory activity in high fat diet-induced obese Wistar albino rat impaired immune model assessed as decrease in total lymphocytes count at 8 mg/kg, po after 8 weeks by hematology analyser relative to control; format: functional, organism-based; set-up: dose 8 mg/kg

| Compound | LD50 [1] [mg/kg] | Activity (Rattus norvegicus [2]) | Activity (Rattus norvegicus [3]) | Activity (Rattus norvegicus [4]) | Activity (Rattus norvegicus [5]) | Activity (Neutrophil [6]) [%] | Activity (Neutrophil [7]) [%] | Activity (Neutrophil [8]) [%] | Activity (Neutrophil [9]) [%] | Activity (Neutrophil [10]) [%] | Activity (Rattus norvegicus [11]) | Activity (Rattus norvegicus [12]) | Activity (Rattus norvegicus [13]) |
| --- | --- | --- | --- | --- | --- | --- | --- | --- | --- | --- | --- | --- | --- |
| NCCNCP1(=O)OCC(OCn2cnc3c(=O)[nH]c(N)nc32)CO1 (stereo not given) | 80 | inactive | inactive | inactive | inactive | 50.46 | 47.3 | 45.35 | 40.12 | 42.51 |  |  |  |
| CCOC(=O)C(CO)NCP1(=O)OCC(OCn2cnc3c(=O)[nH]c(N)nc32)CO1 (stereo not given) | 80 | inactive |  |  |  | 56.02 | 53.09 | 48.11 | 39.8 | 39.92 |  |  |  |
| NCCSCP1(=O)OCC(OCn2cnc3c(=O)[nH]c(N)nc32)CO1 (stereo not given) | 80 | inactive | inactive | inactive | inactive | 57.91 | 50.36 | 49.32 | 33.77 | 45.64 |  |  |  |
| COC(=O)C(NCP1(=O)OCC(OCn2cnc3c(=O)[nH]c(N)nc32)CO1)C(C)C (stereo not given) | 80 | 22.3 ng/mL | 123.6 pg/mL | 5.4 pg/mL | 37.1 pg/mL | 65.14 | 62.45 | 60.83 | 41.18 | 55.09 | Active | Active | Active |
| CCOC(=O)C(CC(C)C)NCP1(=O)OCC(OCn2cnc3c(=O)[nH]c(N)nc32)CO1 (stereo not given) | 80 | inactive |  |  |  | 58.03 | 51.44 | 49.31 | 39.17 | 40.92 |  |  |  |
| Nc1nc2c(ncn2COC2COP(=O)(CNCCO)OC2)c(=O)[nH]1 (stereo not given) | 80 | inactive | inactive | inactive | inactive | 55.25 | 50.57 | 48.54 | 33.38 | 45.98 |  |  |  |
| CCOC(=O)C(NCP1(=O)OCC(OCn2cnc3c(=O)[nH]c(N)nc32)CO1)c1ccc(O)cc1 (stereo not given) | 80 | inactive |  |  |  | 62.25 | 52.31 | 49.49 | 39.58 | 42.46 |  |  |  |
| Nc1nc2c(ncn2COC2COP(=O)(COCCO)OC2)c(=O)[nH]1 (stereo not given) | 80 | inactive | inactive | inactive | inactive | 53.02 | 51.23 | 49.85 | 34.31 | 46.44 |  |  |  |
| Nc1nc2c(ncn2COC2COP(=O)(CSCCO)OC2)c(=O)[nH]1 (stereo not given) | 80 | inactive | inactive | inactive | inactive | 55.35 | 52.15 | 47.93 | 32.25 | 43.73 |  |  |  |
| Nc1nc2c(ncn2COC(CO)CO)c(=O)[nH]1 [GANCICLOVIR] | 80 |  |  |  |  | 60.11 | 58.23 | 55.89 | 39.43 | 53.21 |  |  |  |
| CCOC(=O)C(N)CSCP1(=O)OCC(OCn2cnc3c(=O)[nH]c(N)nc32)CO1 (stereo not given) | 80 | 21.9 ng/mL | 122.9 pg/mL | 5.2 pg/mL | 36.5 pg/mL | 66.82 | 60.16 | 58.04 | 45.03 | 56.34 | Active | Active | Active |
| CCOC(=O)C(NCP1(=O)OCC(OCn2cnc3c(=O)[nH]c(N)nc32)CO1)c1ccccc1 (stereo not given) | 80 | inactive |  |  |  | 60.32 | 52.91 | 46.63 | 40.62 | 43.11 |  |  |  |
| CCC(CO)NCP1(=O)OCC(OCn2cnc3c(=O)[nH]c(N)nc32)CO1 (stereo not given) | 80 | inactive | inactive | inactive | inactive | 54.32 | 53.98 | 46.76 | 31.37 | 43.15 |  |  |  |
